Patent US20240082416A1, “AMATOXIN ANALOGS AND USES THEREOF” (THE UNIVERSITY OF BRITISH COLUMBIA, priority 2020, published 2024)
“And” between values parts separate entries of the source, which are not always exact repeats. Identical values can stand only once. Starred links: 1 amine or outer side, 2 acyl side, 3 side chain; linkers in the order of their positions; H or OH if unused. Positions of bridges follow the written chain, without caps; N, C: chain ends. Non-standard residues stand in square brackets, D forms with d. Residues, ends and D or L forms follow the SMILES beside them. Trp(2-yl) = O=C([C@H](Cc1c([*:3])[nH]c2ccccc12)N[*:1])[*:2]; Pro(trans-4-guanidino) = N=C(N)N[C@H]1CN[C@H](C(=O)O)C1; Ile(4R-OH,5-OH) = C[C@H]([C@H](N)C(=O)O)[C@@H](O)CO; X1 = N#C[C@@H]1C[C@@H](C(=O)[*:2])N([*:1])C1

Legend:
CHO cells = assay: Viability assay against CHO cells (MTT colorimetric assay); assay type: cell-based, Chinese hamster; details: 72 h, replicates n = 1, 2, 3
[1] = as above; assay type: cell-based, Chinese hamster; details: Chinese hamster, CHO cells, 72 h, replicates n = 1, 2, 3, read-out: % viable cells; for viability at 72 h, 1e-05 M: 1e-005 M; for viability at 72 h, 1.25e-06 M: 1.25e-006 M; for viability at 72 h, 1.56e-07 M: 1.56e-007 M; for viability at 72 h, 2e-05 M: 2e-005 M; for viability at 72 h, 2.5e-06 M: 2.5e-006 M; for viability at 72 h, 3.125e-07 M: 3.125e-007 M; for viability at 72 h, 5e-06 M: 5e-006 M; for viability at 72 h, 6.25e-07 M: 6.25e-007 M
Pol II = target: T1, Pol II (Homo sapiens, UniProt P24928); assay: In vitro transcription runoff assay using HeLaScribe nuclear extract; assay type: biochemical; details: for Transcription activity E (%): mean ± standard deviation
T1 construct: HeLaScribe® nuclear extract containing Pol II and all other transcription factors; purchased Promega; host or cells: HeLa nuclear extract (endogenous protein)

[2] = IC50 (nM), Table 11, 3 parameter logistic fit
[3] = IC50 (nM), Table 12, n = 3, high values estimated from activity at [I]=1.0 μM

Row | Structure (SMILES) | viability at 72 h, 1e-05 M [1] [%] | viability at 72 h, 1.25e-06 M [1] [%] | viability at 72 h, 1.56e-07 M [1] [%] | viability at 72 h, 2e-05 M [1] [%] | viability at 72 h, 2.5e-06 M [1] [%] | viability at 72 h, 3.125e-07 M [1] [%] | viability at 72 h, 5e-06 M [1] [%] | viability at 72 h, 6.25e-07 M [1] [%] | Transcription activity E (%) (Pol II; 30 nM) | Transcription activity E (%) (Pol II; 100 nM) | Transcription activity E (%) (Pol II; 300 nM) | Transcription activity E (%) (Pol II; 1000 nM) | IC50 (Pol II; [2]) [nM] | IC50 (Pol II; [3]) [nM] | also measured
1 | CC[C@H](C)[C@@H]1NC(=O)CNC(=O)[C@@H]2Cc3c([nH]c4ccccc34)SC[C@H](NC(=O)CNC1=O)C(=O)N[C@@H](CC(N)=O)C(=O)N1C[C@H](C#N)C[C@H]1C(=O)N[C@@H]([C@@H](C)[C@@H](O)CO)C(=O)N2 [Compound 4, CN-Pro-amanitin] (cyclo(CN[X1][Ile(4R-OH,5-OH)][Trp(2-yl)]GIG); thioether 1-5) | 110 | 102 | 102 | 121 | 101 | 99 | 103 | 102 | 64.8 ± 7.4 | 74.0 ± 13.0 | 72.4 ± 9.7 | 52.3 ± 17.0 | 480 ± 380 | 480 ± 380 | % viable cells (CHO cells; 1e-005 M, listed as CN-Pro-amanitin (4)): 90%; % viable cells (CHO cells; 1.25e-006 M, listed as CN-Pro-amanitin (4)): 91% and 92%; % viable cells (CHO cells; 1.56e-007 M, listed as CN-Pro-amanitin (4)): 93% and 87%; % viable cells (CHO cells; 2e-005 M, listed as CN-Pro-amanitin (4)): 118% and 108%; % viable cells (CHO cells; 2.5e-006 M, listed as CN-Pro-amanitin (4)): 91% and 87%; % viable cells (CHO cells; 3.125e-007 M, listed as CN-Pro-amanitin (4)): 92% and 90%; % viable cells (CHO cells; 5e-006 M, listed as CN-Pro-amanitin (4)): 92% and 90%; % viable cells (CHO cells; 6.25e-007 M, listed as CN-Pro-amanitin (4)): 89% and 92%; Transcription activity E (%) (Pol II; 10 nM): 80.7 ± 7.9%
2 | CC[C@H](C)[C@@H]1NC(=O)CNC(=O)[C@@H]2Cc3c([nH]c4ccccc34)SC[C@H](NC(=O)CNC1=O)C(=O)N[C@@H](CC(N)=O)C(=O)N1C[C@H](NC(=N)N)C[C@H]1C(=O)N[C@@H]([C@@H](C)[C@@H](O)CO)C(=O)N2 [Compound 7, Gdn-Pro-amanitin] (cyclo(CN[Pro(trans-4-guanidino)][Ile(4R-OH,5-OH)][Trp(2-yl)]GIG); thioether 1-5) | 100 | 89 | 88 | 99 | 90 | 85 | 93 | 88 | 77.3 ± 9.0 | 76.1 ± 13.2 | 56.6 ± 11.6 | 31.3 ± 5.8 | 410 ± 80 | 410 ± 80 | % viable cells (CHO cells; 1e-005 M, listed as Gdn-Pro-amanitin (7)): 102%; % viable cells (CHO cells; 1.25e-006 M, listed as Gdn-Pro-amanitin (7)): 86%; % viable cells (CHO cells; 1.56e-007 M, listed as Gdn-Pro-amanitin (7)): 91% and 80%; % viable cells (CHO cells; 2e-005 M, listed as Gdn-Pro-amanitin (7)): 101%; % viable cells (CHO cells; 2.5e-006 M, listed as Gdn-Pro-amanitin (7)): 82%; % viable cells (CHO cells; 3.125e-007 M, listed as Gdn-Pro-amanitin (7)): 86%; % viable cells (CHO cells; 6.25e-007 M, listed as Gdn-Pro-amanitin (7)): 83% and 84%; % viable cells (CHO cells; 7.8e-008 M, listed as Gdn-Pro-amanitin (7)): 92%; viability at 72 h, 7.8e-08 M ([1]; 7.8e-008 M): 96%; Transcription activity E (%) (Pol II; 3000 nM): 14.1 ± 7.1%; IC50 (Pol II; IC50): ~400 nM; IC50 fold higher than that of the natural product (Pol II; vs α-amanitin): approximately 50 fold
